Test results from ChEMBL document CHEMBL5120746, “Novel 5-fluorouracil sensitizers for colorectal cancer therapy: Design and synthesis of S1P receptor 2 (S1PR2) antagonists” (Eur J Med Chem, 2022).

How the values were obtained:
SW620/5-FU [1] = experiment: Reversal of 5-FU resistance against human SW620/5-FU cells assessed as reduction in cell viability incubated for 48 hrs in presence of 5-FU by MTT assay; type: functional, cell-based
HCT-116 [2] = experiment: Reversal of 5-FU resistance against 5-FU resistant DPD expressed human HCT-116 cells assessed as reduction in cell viability incubated for 48 hrs in presence of 5-FU by MTT assay; type: functional, cell-based; conditions: HCT-116, 48 h
[3] = biological target: T1, Sphingosine 1-phosphate receptor 2 (Homo sapiens, UniProt O95136); experiment: Binding affinity to S1PR2 (unknown origin) by SPR assay
T1 sequence (O95136 whole entry): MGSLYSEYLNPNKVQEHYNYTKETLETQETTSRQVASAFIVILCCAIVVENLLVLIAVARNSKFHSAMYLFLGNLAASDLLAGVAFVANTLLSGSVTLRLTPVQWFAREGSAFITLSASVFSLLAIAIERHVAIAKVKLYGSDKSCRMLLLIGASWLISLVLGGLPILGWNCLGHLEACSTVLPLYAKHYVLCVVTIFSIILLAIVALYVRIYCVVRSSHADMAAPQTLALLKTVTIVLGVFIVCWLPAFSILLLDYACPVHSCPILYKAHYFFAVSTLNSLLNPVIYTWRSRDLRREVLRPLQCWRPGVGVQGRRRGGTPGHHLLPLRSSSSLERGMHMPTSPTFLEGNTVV

SW620/5-FU [4] = experiment: Antitumor activity against human SW620/5-FU cells xenografted in SPF nude mouse assessed as tumor growth inhibition at 15 mg/kg, iv QD for 21 days and measured every 4 days; type: functional; conditions: 504 h, time 21 day, read-out: TGI
HCT-116 [5] = experiment: Antitumor activity against DPD expressed human HCT-116 cells xenografted in SPF nude mouse assessed as tumor growth inhibition at 15 mg/kg, iv QD for 20 days and measured every 4 days; type: functional; conditions: HCT-116, 480 h, time 20 day, read-out: TGI
SW620/5-FU [6] = experiment: Antitumor activity against human SW620/5-FU cells xenografted in SPF nude mouse assessed as reduction in tumor weight at 15 mg/kg, iv QD for 21 days; type: functional; set-up: scale not given: the % may be the effect or the level left; conditions: time 21 day
HCT-116 [7] = experiment: Antiproliferative activity against 5-FU resistant DPD expressed human HCT-116 cells assessed as reduction in cell viability incubated for 48 hrs by MTT assay; type: functional, cell-based; conditions: HCT-116, 48 h
SW620/5-FU [8] = experiment: Antiproliferative activity against human SW620/5-FU cells assessed as reduction in cell viability incubated for 48 hrs by MTT assay; type: functional, cell-based
[9] = biological target: T1, Sphingosine 1-phosphate receptor 2; experiment: Antagonist activity at S1PR2 in human SW620/5-FU cells assessed as reduction of DPD-catalyzed 5-FU degradation by measuring intracellular 5-FU level at 20 uM measured after 24 hrs by HPLC-UV analysis; type: functional, cell-based; conditions: filed as antagonist

SMILES	EC50 (SW620/5-FU [1]) [µM]	EC50 (HCT-116 [2]) [µM]	Kd [3] [µM]	also measured
CCCOc1cc(NC(=O)NNc2cc(-c3ccc(OC)cc3)c3cnn(C)c3n2)cc(Cl)n1	37.2	33.2	3.14	–
CCCCOc1cc(NC(=O)NNc2cc(-c3ccc(OC)cc3)c3cnn(C)c3n2)cc(Cl)n1	39.2	36.5	4.15	–
Cn1ncc2c(-c3ccc(F)cc3)cc(NNC(=O)Nc3cc(F)cc(F)c3)nc21	47.4	46.2	3.98	–
CCCc1cc(NNC(=O)Nc2cc(Cl)nc(Cl)c2)nc2c1cnn2C	38.7	76.2	1.4	–
Cc1ccc(NC(=O)NNc2cc(-c3ccc(F)cc3)c3cnn(C)c3n2)cc1Nc1nccc(-c2cccnc2)n1	33.1	39.1	5.96	–
CCCc1cc(NNC(=O)Nc2cc(Cl)nc(Cl)c2)nc2c1c(C(F)(F)F)nn2C	11.7	38.2	0.89	–
Cc1nn(C)c2nc(NNC(=O)Nc3cc(Cl)nc(Cl)c3)cc(-c3ccc(Cl)s3)c12	29.4	42.1	1.98	–
Cc1c(Cc2ccccc2)c(NNC(=O)Nc2cc(Cl)nc(Cl)c2)nc2c1cnn2C	21.4	13.6	0.87	–
Cn1ncc2c(-c3ccc(F)cc3)cc(NNC(=O)Nc3cc(Cl)nc(OCCF)c3)nc21	29.3	37.2	2.79	–
COc1cc(NC(=O)NNc2cc(-c3ccc(F)cc3)c3cnn(C)c3n2)cc(Cl)n1	24.1	75.3	1.65	–
CCCc1cc(NNC(=O)Nc2cc(Cl)nc(Cl)c2)nc2c1c(C)nn2C	40.8	72.2	2.36	–
Cc1nn(C)c2nc(NNC(=O)Nc3cc(Cl)nc(Cl)c3)cc(C3CC3)c12	80.8	67.7	3.65	–
CCN(CC)c1cc(NC(=O)NNc2cc(-c3ccc(F)cc3)c3cnn(C)c3n2)cc(Cl)n1	37	29.4	3.15	–
COc1ccc(-c2cc(NNC(=O)Nc3cc(Cl)nc(Cl)c3)nc3c2cnn3C)cc1	18.4	12.3	0.52	–
Cc1cc(NNC(=O)Nc2cc(Cl)nc(Cl)c2)nc2c1c(C)nn2C	> 100	> 100	11	–
Cn1ncc2c(-c3ccc(F)cc3)cc(NNC(=O)Nc3cc(Cl)cc(Cl)c3)nc21	54.3	39.1	4.98	–
Cc1nn(C)c2nc(NNC(=O)Nc3cc(Cl)nc(Cl)c3)cc(C3CCCCC3)c12	22	38	2.01	–

SMILES	EC50 (SW620/5-FU [1]) [µM]	EC50 (HCT-116 [2]) [µM]	Kd [3] [µM]	also measured
O=c1[nH]cc(F)c(=O)[nH]1 [FLUOROURACIL]	–	–	–	inhibition in vivo at 15 mg/kg (SW620/5-FU [4]): 21.2%; inhibition in vivo at 15 mg/kg (HCT-116 [5]): 20.3%; Activity (SW620/5-FU [6]): 27.23%; EC50 (HCT-116 [7]): > 1000 µM; EC50 (SW620/5-FU [8]): > 1000 µM
COc1cc(NC(=O)NNc2cc(-c3ccccc3)c3cnn(C)c3n2)cc(Cl)n1	28.7	31.2	3.64	–
COc1cc(NC(=O)NNc2cc(-c3ccc(F)cc3)c3cnn(C)c3n2)cc(OC)c1OC	39.2	45.3	4.44	–
COc1ccc(-c2cc(NNC(=O)Nc3cc(Cl)nc(OC(C)C)c3)nc3c2cnn3C)cc1	47.1	39.8	2.32	–
COc1ccc(-c2cc(NNC(=O)Nc3cc(Br)nc(Br)c3)nc3c2cnn3C)cc1	54.1	45.2	6.32	–
CC(C)c1cc(NNC(=O)Nc2cc(Cl)nc(Cl)c2)nc2c1c(C(F)(F)F)nn2C	19.1	27.2	1.25	–
Cn1ncc2c(-c3ccccc3)cc(NNC(=O)Nc3cc(Cl)nc(Cl)c3)nc21	76.9	6.24	1.02	–
CCCCOc1cc(NC(=O)NNc2cc(-c3ccc(F)cc3)c3cnn(C)c3n2)cc(Cl)n1	29.3	49.4	2.65	–
Cc1nn(C)c2nc(NNC(=O)Nc3cc(Cl)nc(Cl)c3)cc(-c3ccco3)c12	> 100	69.2	6.52	–
Cn1ncc2c(-c3ccc(F)cc3)cc(NNC(=O)N/C=C/c3cccnc3)nc21	49.3	36.2	4.12	–
Cc1nn(C)c2nc(NNC(=O)Nc3cc(Cl)nc(Cl)c3)cc(-c3ccccc3)c12	22.9	80	5.32	–
CC(C)c1cc(NNC(=O)Nc2cc(Cl)nc(Cl)c2)nc2c1cnn2C	50.1	17.2	0.78	–
COc1ccc(-c2cc(NNC(=O)Nc3cc(Cl)nc(Cl)c3)nc3c2c(C)nn3C)cc1	9.7	82.3	1.02	–
Cn1nc(C(F)(F)F)c2c(-c3ccccc3)cc(NNC(=O)Nc3cc(Cl)nc(Cl)c3)nc21	13.1	18.1	0.94	–
COc1ccc(-c2cc(NNC(=O)Nc3cc(Cl)nc(OC)c3)nc3c2cnn3C)cc1	48.8	54.2	1.98	–
Cc1nn(C)c2nc(NNC(=O)Nc3cc(Cl)nc(Cl)c3)cc(C(C)C)c12	58.6	18.3	1.96	Activity [9]: 1.75 µM
Cc1nn(C)c2nc(NNC(=O)Nc3cc(Cl)nc(Cl)c3)cc(-c3ccc(F)cc3)c12	17.4	25.2	0.98	–
